Laboratory results from patent US20010055573A1, “Delivery systems for active ingredients including sunscreen actives and methods of making same” (Shamrock Technologies, priority 1999, published 2001).

Assay: Solubility of the sunscreen active in the preferred non-polar solvents
Type: physicochemical
Details: ethylferulate by itself, without lubricating wax as cosolvent
Excerpt: Thus, this embodiment of the present invention solves a significant problem which the prior art has heretofore been unable to overcome without emulsification, namely, the poor solubility of ethylferulate and other polar solid organic sunscreen actives in non-polar solvents, which causes difficulties in formulating sunscreen products in non-emulsified systems.

CCOC(=O)/C=C/c1ccc(O)c(OC)c1 [ethylferulate, ethyl ester of ferulic acid]
solubility in the preferred solvents: not soluble to any significant extent
